Assay results published in PMC10321483 (Chemical Science, 2023).
“And” between values parts separate entries of the source, which are not always exact repeats. Equal values may be shown once. Read-outs that look alike come from different tables or passages of the source.

Tests used:
[1] = Intrinsic thiol reactivity (kchem), competition with probe 2 for L-glutathione; format: physicochemical; conditions: for log(kchem) probe 2 (mean ± SD): Table S11 assay validation; for kchem (apparent intrinsic thiol reactivity): Table S5, L-glutathione 500 nM, probe 2 10 µM, 15 h
[2] = parameters: method as in earlier work; conditions: Table S11; reported values; ref 6 (Sameshima et al., 2017); cited from earlier work
BlaC = target: T1, BlaC (Mycobacterium tuberculosis, UniProt P9WKD3); assay: BlaC fluorogenic inhibition assay with FC5 (dose-response); format: biochemical; conditions: Table S5 HTS hits, 30 minute inhibitor pre-incubation, two independent repeats
T1 construct: made in house; host or cells: E. coli
T1 sequence (P9WKD3 35-307): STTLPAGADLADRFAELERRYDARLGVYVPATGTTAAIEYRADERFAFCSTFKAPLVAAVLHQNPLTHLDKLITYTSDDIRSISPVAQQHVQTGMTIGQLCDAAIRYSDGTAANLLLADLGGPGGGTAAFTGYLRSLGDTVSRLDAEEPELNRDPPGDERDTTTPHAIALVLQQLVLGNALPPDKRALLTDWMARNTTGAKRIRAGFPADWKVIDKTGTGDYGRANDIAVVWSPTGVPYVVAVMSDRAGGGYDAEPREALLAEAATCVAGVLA
Experimental: Two types of controls were used. […] In control 2, the BlaC mixture was substituted with the assay buffer. This mixture was incubated for 30 minutes at room temperature without shaking. […] Data were analysed using ActivityBase (IDBS).

[3] = system: M. tuberculosis (strain H37Rv) growth in THP1 cells; assay: Intracellular assay: Mtb H37Rv-Luc in THP-1 macrophages; format: cell-based, Mycobacterium tuberculosis; conditions: 5 days, extrapolated from dose-response curve
[4] = system: M. tuberculosis (strain H37Rv); assay: Extracellular assay: M. tuberculosis H37Rv in medium under replicating conditions; format: cell-based, Mycobacterium tuberculosis
HepG2 cells = assay: HepG2 cytotoxicity assay (CellTiter Glo); format: cell-based; conditions: 48 h, ATP read-out
Experimental: Solutions of the test compounds (250 nL per well; 11 serial dilutions of 1/3 with starting concentration 100 μM) were dispensed in tissue-culture treated black clear-bottomed 384-well plates (Greiner, cat. no. 781091) with an Echo 555 instrument. 25 μL of HepG2 (ATCC HB-8065) cells (∼3000 cells per well) grown to confluency in Eagle's Minimal Essential Medium (MEM) supplemented with 10% (v/v) heat-inactivated FBS, 1% (v/v) non-essential amino acids (NEAA), and 1% (v/v) penicillin/streptomycin were added to each well. Plates were incubated at 37 °C with 20% O2 and 5% CO2 for 48 h. The plates were then equilibrated to room temperature. ATP levels, measured with CellTiter Glo kit (Promega), were used as cell viability read-out. 25 μL of CellTiter Glo substrate dissolved in the buffer was added to each well. Plates were incubated at room temperature for 10 min and read on ViewLux (PerkinElmer) […].

LdtMt2 [5] = target: T2, LdtMt2 (Mycobacterium tuberculosis, UniProt I6Y9J2); assay: biochemical; format: biochemical; parameters: made in house; host or cells: E. coli
T2 sequence (I6Y9J2 56-408): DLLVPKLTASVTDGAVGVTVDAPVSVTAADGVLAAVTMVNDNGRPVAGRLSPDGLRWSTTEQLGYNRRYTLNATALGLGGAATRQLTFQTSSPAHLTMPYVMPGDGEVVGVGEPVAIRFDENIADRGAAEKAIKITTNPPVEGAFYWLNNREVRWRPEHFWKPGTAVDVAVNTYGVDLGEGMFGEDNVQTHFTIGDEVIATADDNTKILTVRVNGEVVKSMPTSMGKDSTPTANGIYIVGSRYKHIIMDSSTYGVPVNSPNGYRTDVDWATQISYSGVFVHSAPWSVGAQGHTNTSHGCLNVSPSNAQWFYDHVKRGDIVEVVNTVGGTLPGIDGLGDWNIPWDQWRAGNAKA

LdtMt2 [6] = target: T2, LdtMt2; assay: Rate constant of covalent target inactivation (kinact/KI), endpoint competition assay with probe 2; format: biochemical; parameters: made in house; host or cells: E. coli; conditions: 100 nM LdtMt2, 10 µM probe 2, 3 h incubation; n=4
LdtMt2 [7] = target: T2, LdtMt2; assay: biochemical; format: binding; parameters: made in house; host or cells: E. coli
Experimental: LdtMt2 (5 μM) was incubated with the inhibitor (500 μM) in assay buffer (50 mM tris pH 7.5) for 30 minutes at room temperature in 96-well white PCR plates (25 μL final volume, Starlab). SYPRO Orange (final concentration 6×, according to manufacturer's definition, Invitrogen) was then added and the plate was sealed using a transparent plastic film (Polyolefin StarSeal, Starlab). Fluorescence was monitored (with λex = 492 nm and λem = 610 nm) using a CFX96 Touch Real-Time PCR Detection System (Bio-Rad), while the temperature was increased from 20 to 95 °C in increments of 0.2 °C. Melting temperatures (Tms) were determined using the CFX Maestro Software (Bio-Rad).

LdtMt2 [8] = target: T2, LdtMt2; assay: Jump dilution assay (reversibility, koff); format: biochemical; parameters: made in house; host or cells: E. coli; conditions: read-out: koff (off rate of complex with LdtMt2)
Experimental: LdtMt2 (10 μM final concentration) was incubated with the inhibitor (100 μM final concentration) in the assay buffer (50 mM HEPES, pH 7.2, 0.01% (v/v) Triton X-100) for 2 hours at room temperature, then serially diluted 1000× with assay buffer (final LdtMt2 concentration 10 nM). 20 μL of the diluted mixture was added to a black polystyrene, flat-bottomed 384-well μ-clear plate (clear bottomed, Greiner Bio-One, part number 781096). Probe 2 (final concentration 15 μM) was added using a MultiDrop Combi dispenser (ThermoFisher Scientific). Fluorescence was measured using a PHERAstar plate reader (BMG Labtech) with λex = 480 nm and λem = 520 nm. Readings were taken every 15 s for a period of 5 minutes, using bottom optic measurements. The off rate (koff) was determined using eqn (7).7 [drawing 3] where, P = formed product; Vs = velocity of no-inhibitor control; V0 = velocity of no-enzyme control, and P0 = initial fluorescence.
The half-life of the enzyme–inhibitor complex (t1/2) was calculated using eqn (8).8 [drawing 4]

LdtMt2 [9] = target: T2, LdtMt2; conditions: 1 μM LdtMt2, denaturing acidic conditions
Experimental: LdtMt2 (1 μM) in buffer (50 mM tris, pH 7.5) was incubated with an inhibitor (100 μM, 10 μM, or 2 μM, as indicated). Mass spectrometry was performed using a RapidFire200 integrated autosampler/solid phase extraction (SPE) system (Agilent Technologies) coupled to an API40000 triple quadrupole mass spectrometer (Applied Biosystems) operating in the positive ionisation mode. Samples were taken after the specified incubation periods, loaded onto a C4 cartridge (Agilent Technologies), and eluted with organic phase (85% (v/v) acetonitrile, 15% (v/v) water, 0.1% (v/v) formic acid). The cartridge was washed with both the organic phase and an aqueous phase (water, 0.1% (v/v) formic acid). Data were analysed using MassHunter Qualitative Analysis B.07.00 (Agilent Technologies). Spectra were deconvoluted using the maximum entropy algorithm in the same programme.

Row | Compound | log(kchem) probe 2 (mean ± SD) [1] | log(kchem) o-maleimide BODIPY (mean ± SD) [2] | MIC50 intracellular [3] | MIC50 [4] | IC50 (HepG2 cells) | LE (ligand efficiency) (LdtMt2 [5]) | kinact/KI (LdtMt2 [6]) | ΔTm: difference in melting point of LdtMt2 relative to unreacted LdtMt2 (43.8 °C) (LdtMt2 [7]) | also measured
1 | O=C(O)C=CC(=O)c1ccc(Br)cc1 [iii] | 0.93 ± 0.02 | 1.34 ± 0.10 | – | – | – | – | – | – | –
2 | N#Cn1c(-c2ccncc2)nc2ccc(C(=O)c3ccccc3)cc21 [Compound 36] | – | – | 29.5 ± 0.0 µM and < 50 µM | > 100 µM | 32700 ± 380 nM | 0.45 | 51.0 ± 3.4 M⁻¹ s⁻¹ | -3.0 | pIC50 BlaC (BlaC): < 4.0; lowered the melting temperature of LdtMt2 by (LdtMt2 [7]): 3.0 °C; Tm: melting point of LdtMt2 after pre-incubation with the compound (LdtMt2 [7]; pH 7.5, in °C (unit assumed)): 40.8 ± 0.59
3 | O=C(OCN1C(=O)C=CC1=O)c1ccccc1 [Compound 7] | – | – | 39.8 ± 0.0 µM and < 50 µM | > 100 µM | 3900 ± 880 nM | 0.66 | 156 ± 5.1 M⁻¹ s⁻¹ | – | Tm: melting point of LdtMt2 after pre-incubation with the compound (LdtMt2 [7]; pH 7.5): 43.1 ± 0.09 °C
4 | Cc1ccc(C(=O)C=CC(=O)O)cc1C [ii] | 0.76 ± 0.03 | 1.07 ± 0.09 | – | – | – | – | – | – | –
5 | CCOc1ccc(CN2C(=O)C(=O)c3cc(Br)cc(C)c32)cc1OC [Compound 16] | – | – | – | – | – | – | – | – | IC50 (BlaC; pIC50 BlaC): 36300 nM; kchem (apparent intrinsic thiol reactivity) [1]: < 0.08 M⁻¹ s⁻¹; LE (ligand efficiency) (LdtMt2 [5]; Table S5, for LdtMt2): 0.45; IC50 (LdtMt2 [5]; Table S5 HTS hits, 30 minute inhibitor pre-incubation, two independent repeats, read-out: pIC50 LdtMt2 (converted)): 178 nM; IC50 (LdtMt2 [5]; Table S8, inhibitor pre-incubation time 0 min, read-out: pIC50, 0 min (converted)): 302 nM; IC50 (LdtMt2 [5]; Table S8, inhibitor pre-incubation time 120 min, read-out: pIC50, 120 min (converted)): 407 nM; IC50 (LdtMt2 [5]; pIC50, 10 min, Table S8, inhibitor pre-incubation time 10 min): 363 nM; IC50 (LdtMt2 [5]; pIC50, 60 min, Table S8, inhibitor pre-incubation time 60 min): 372 nM; Tm: melting point of LdtMt2 after pre-incubation with the compound (LdtMt2 [7]; 5 µM LdtMt2, 500 µM inhibitor, SYPRO Orange, 50 mM Tris pH 7.5): 46.8 ± 0.00 °C; ΔTm at 500 µM (LdtMt2 [7]; read-out: ΔTm: difference in melting point of LdtMt2 relative to unreacted LdtMt2 (43.8 °C)): 3 °C; koff (LdtMt2 [8]): 0.0286 s⁻¹
6 | O=C1C=CC(=O)N1c1ccc(Oc2ccccc2)c(Cl)c1 [Compound 5] | – | – | 25.7 ± 0.30 µM and < 50 µM | > 100 µM | 2510 ± 120 nM | 0.53 | 116 ± 6.2 M⁻¹ s⁻¹ | -0.2 °C | Tm: melting point of LdtMt2 after pre-incubation with the compound (LdtMt2 [7]; pH 7.5): 43.6 ± 0.16 °C
7 | N#C[s+]1c2ccccc2c2ccccc21.O=S(=O)([O-])C(F)(F)F [Compound 45, reference compound] | – | – | – | – | – | – | – | – | covalent modification of LdtMt2 (adduct observed by SPE-MS) (LdtMt2 [9]): did not modify LdtMt2
8 | CCOc1ccc(C(=O)C=CC(=O)O)cc1OCC [i] | 0.65 ± 0.06 | 0.86 ± 0.09 | – | – | – | – | – | – | –
9 | O=C1C(=O)N(Cc2cccc3ccccc23)c2ccc(Br)cc21 [Compound 18] | – | – | 35.5 ± 5.4 µM and < 50 µM | > 100 µM | 42300 ± 3400 nM | 0.49 | – | +2.4 | pIC50 BlaC (BlaC): < 4.0; kchem (apparent intrinsic thiol reactivity) [1]: < 0.08 M⁻¹ s⁻¹; covalent modification of LdtMt2 (adduct observed by SPE-MS) (LdtMt2 [9]): not observed to modify LdtMt2; pIC50, 0 min (LdtMt2 [5]): 6.39 ± 0.07; pIC50, 10 min (LdtMt2 [5]): 6.24 ± 0.23; pIC50, 60 min (LdtMt2 [5]): 6.49 ± 0.35; pIC50, 120 min (LdtMt2 [5]): 6.56 ± 0.35; Tm: melting point of LdtMt2 after pre-incubation with the compound (LdtMt2 [7]; pH 7.5, in °C (unit assumed)): 46.2 ± 0.00
